The values below come from patent publication US9216968B2, “Heterocyclic derivative and pharmaceutical drug” (NIPPON SHINYAKU CO., LTD., priority 2011, dated 2015).

The test system of one assay is A549 cells. The assay can be described thus: Inhibition of PGE2 production in A549 cell (IL-1β stimulated). The class given is cell-based, human. Conditions: Homo sapiens, A549, 24 h, IL-1β 5 ng/well, PGE2 in culture medium. The procedure, abridged:
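A549 cells preincubated 60 min with compound in RPMI/3% FBS (final DMSO 0.10), then stimulated with IL-1β (5 ng/well) for 24 h at 37 °C. PGE2 measured by HTRF and PGF2α by EIA in medium; IC50 from inhibition relative to stimulated minus unstimulated production.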

The next assay deals with human mPGES-1 (Homo sapiens (Human), UniProt O14684). The assay can be described thus: mPGES-1 inhibiting activity (microsome fractions, PGE2 by HTRF). The format is biochemical. Conditions: microsomes from CHO-K1 cells transfected with human mPGES-1; PGH2 1 μM, 4° C., 60 seconds; read-out: mPGES-1 Inhibition IC50. The procedure, abridged:
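PGE2 formation read by HTRF after 60 s at 4 °C with 1 μM PGH2 substrate, following 20 min compound preincubation (1% DMSO) with human mPGES-1 microsomes from transfected CHO-K1 cells. Buffer: potassium phosphate, reduced glutathione, pH 7.4; IC50 from activity relative to enzyme-free blank.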
A general note: In TR-FRET formats the signal depends on donor and acceptor labels being close together.

SMILES strings stand for the structures. Structures can show the parent of a compound that is named as a salt. Bounds are passed on as bounds.

human mPGES-1, sequence (O14684 whole entry): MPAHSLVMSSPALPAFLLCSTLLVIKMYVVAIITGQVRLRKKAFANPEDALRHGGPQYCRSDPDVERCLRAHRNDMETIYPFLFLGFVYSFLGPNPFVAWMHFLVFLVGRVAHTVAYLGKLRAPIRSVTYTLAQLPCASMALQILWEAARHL

Broadly, the IC50 is the concentration that gives 50% inhibition. For the molecule `Cc1c(Cl)cccc1NC(=O)c1cc(NC(=O)c2cc(Cl)ccc2Cl)cc2[nH]c(NCCOC(C)C)nc12` [Example 193, N-(3-Chloro-2-methylphenyl)-6-{[(2,5-dichlorophenyl)carbonyl]amino}-2-{[2-(propan-2-yloxy)ethyl]amino}-1H-benzimidazole-4-carboxamide hydrochloride], the figures for the IC50 in the assay on A549 cells and on human mPGES-1 were 0.0189 µM and 0.0004 µM, respectively.

On to `Cc1c(Cl)cccc1NC(=O)c1cc(NC(=O)c2ccccc2C(F)(F)F)cc2[nH]c(CC(C)(C)C)nc12` [Example 82, N-(3-Chloro-2-methylphenyl)-2-(2,2-dimethylpropyl)-6-({[2-(trifluoromethyl)phenyl]carbonyl}amino)-1H-benzimidazole-4-carboxamide hydrochloride], for which the IC50 worked out at 0.0063 µM with A549 cells and 0.0004 µM at human mPGES-1.

Turning to `Cc1c(Cl)cccc1NC(=O)c1cc(NC(=O)c2ccccc2C(F)(F)F)cc2[nH]cnc12` [Example 3, N-(3-Chloro-2-methylphenyl)-6-({[2-(trifluoromethyl)phenyl]carbonyl}mino)-1H-benzimidazole-4-carboxamide], the IC50 came out at 0.0246 µM in the assay with A549 cells and 0.0015 µM at human mPGES-1.

Consider `Cc1c(Cl)cccc1NC(=O)c1cc(NC(=O)c2ccccc2C(F)(F)F)cc2[nH]c(NCC(=O)OC(C)(C)C)nc12` [Example 160, tert-Butyl N-{4-[(3-chloro-2-methylphenyl)carbamoyl]-6-({[2-(trifluoromethyl)phenyl]carbonyl}amino)-1H-benzimidazol-2-yl}glycinate hydrochloride], for which the concentration for half-maximal inhibition (IC50) was found to be 0.0716 µM in the assay with A549 cells and 0.0076 µM at human mPGES-1.

As for `COCc1nc2c(C(=O)Nc3cccc(Cl)c3C)cc(NC(=O)c3ccncc3Cl)cc2[nH]1` [Example 245, N-(3-Chloro-2-methylphenyl)-6-{[(3-chloropyridin-4-yl)carbonyl]amino}-2-(methoxymethyl)-1H-benzimidazole-4-carboxamide hydrochloride], the figures for the IC50 with A549 cells and at human mPGES-1 were 0.166 µM and 0.0257 µM, respectively.

For `CCc1nc2c(C(=O)NC3CCCCC3)cc(NC(=O)c3ccccc3C(F)(F)F)cc2[nH]1` [Example 18, N-Cyclohexyl-2-ethyl-6-({[2-(trifluoromethyl)phenyl]carbonyl}amino)-1H-benzimidazole-4-carboxamide], the half-maximal inhibitory concentration (IC50) was 0.11 µM in the assay on A549 cells and 0.0216 µM at human mPGES-1.

Turning to `CC(=O)OCc1nc2c(C(=O)Nc3cccc(Cl)c3C)cc(NC(=O)c3ccccc3C(F)(F)F)cc2[nH]1` [Example 63, {4-[(3-Chloro-2-methylphenyl)carbamoyl]-6-({[2-(trifluoromethyl)phenyl]carbonyl}amino)-1H-benzimidazol-2-yl}methyl acetate], the figures for the 50% inhibitory concentration (IC50) in the assay with A549 cells and on human mPGES-1 were 0.0548 µM and 0.0056 µM, respectively.

Consider `Cc1c(Cl)cccc1NC(=O)c1cc(NC(=O)c2ccccc2C(F)(F)F)cc2[nH]c(N3CCOCC3)nc12` [Example 156, N-(3-Chloro-2-methylphenyl)-2-(morpholin-4-yl)-6-({[2-(trifluoromethyl)phenyl]carbonyl}amino)-1H-benzimidazole-4-carboxamide], for which the IC50 in the assay with A549 cells worked out at 0.0246 µM; on human mPGES-1, 0.0016 µM.

`COCc1nc2c(C(=O)Nc3cccc(Cl)c3C)cc(NC(=O)c3cc(C(F)(F)F)ccc3C(F)(F)F)cc2[nH]1` [Example 110, 6-({[2,5-Bis(trifluoromethyl)phenyl]carbonyl}amino)-N-(3-chloro-2-methylphenyl)-2-(methoxymethyl)-1H-benzimidazole-4-carboxamide hydrochloride]: the values for the IC50 in the assay on A549 cells and at human mPGES-1 were 0.0355 µM and 0.0026 µM, respectively.

For `Cc1c(Cl)cccc1NC(=O)c1cc(NC(=O)c2ccccc2C(F)(F)F)cc2[nH]c(NCCCN(C)C)nc12` [Example 153, N-(3-Chloro-2-methylphenyl)-2-{[3-(dimethylamino)propyl]amino}-6-({[2-(trifluoromethyl)phenyl]carbonyl}amino)-1H-benzimidazole-4-carboxamide hydrochloride], the IC50 in the assay with A549 cells was determined as 0.618 µM; at human mPGES-1 it was 0.0223 µM.

On to `CC(=O)N1CC(c2nc3c(C(=O)Nc4cccc(Cl)c4C)cc(NC(=O)c4ccccc4C(F)(F)F)cc3[nH]2)C1` [Example 68, 2-(1-Acetylazetidin-3-yl)-N-(3-chloro-2-methylphenyl)-6-({[2-(trifluoromethyl)phenyl]carbonyl}amino)-1H-benzimidazole-4-carboxamide hydrochloride], for which the results for the IC50 in the assay on A549 cells and at human mPGES-1 were above 10 µM and 0.0634 µM, respectively.

As to `CCOCCOc1ccc(Cl)c(C(=O)Nc2cc(C(=O)Nc3cccc(Cl)c3C)c3nc(COC)[nH]c3c2)c1` [Example 115, 6-({[2-Chloro-5-(2-ethoxyethoxy)phenyl]carbonyl}amino)-N-(3-chloro-2-methylphenyl)-2-(methoxymethyl)-1H-benzimidazole-4-carboxamide hydrochloride], the figures for the IC50 in the assay with A549 cells and at human mPGES-1 were 0.037 µM and 0.0115 µM, respectively.

In the case of `CCOCc1ccc(Cl)c(C(=O)Nc2cc(C(=O)Nc3cccc(Cl)c3C)c3nc(COC)[nH]c3c2)c1` [Example 120, 6-({[2-Chloro-5-(ethoxymethyl)phenyl]carbonyl}amino)-N-(3-chloro-2-methylphenyl)-2-(methoxymethyl)-1H-benzimidazole-4-carboxamide], the IC50 with A549 cells stood at 0.513 µM; at human mPGES-1, 0.0575 µM.

With `Cc1c(Cl)cccc1NC(=O)c1cc(NC(=O)c2ccccc2C(F)(F)F)cc2[nH]c(NCCN3CCCC3)nc12` [Example 152, N-(3-Chloro-2-methylphenyl)-2-{[2-(pyrrolidin-1-yl)ethyl]amino}-6-({[2-(trifluoromethyl)phenyl]carbonyl}amino)-1H-benz imidazole-4-carboxamide hydrochloride], the IC50 turned out to be 0.854 µM in the assay on A549 cells and 0.0316 µM on human mPGES-1.

Take `CSCCNc1nc2c(C(=O)Nc3cccc(Cl)c3C)cc(NC(=O)c3ccccc3C(F)(F)F)cc2[nH]1` [Example 178, N-(3-Chloro-2-methylphenyl)-2-{[2-(methylsulfanyl)ethyl]amino}-6-({[2-(trifluoromethyl)phenyl]carbonyl}amino)-1H-benzimidazole-4-carboxamide hydrochloride]: the IC50 in the assay on A549 cells stood at 0.0128 µM; on human mPGES-1, 0.0012 µM.

As for `Cc1c(Cl)cccc1NC(=O)c1cc(NC(=O)c2ccccc2C(F)(F)F)cc2[nH]c(C3CC3)nc12` [Example 83, N-(3-Chloro-2-methylphenyl)-2-cyclopropyl-6-({[2-(trifluoromethyl)phenyl]carbonyl}amino)-1H-benzimidazole-4-carboxamide hydrochloride], the IC50 turned out to be 0.0165 µM in the assay on A549 cells and 0.0098 µM at human mPGES-1.

For `COCc1nc2c(C(=O)Nc3cccc(Cl)c3C)cc(NC(=O)c3c(F)cccc3Br)cc2[nH]1` [Example 103, 6-{[(2-Bromo-6-fluorophenyl)carbonyl]amino}-N-(3-chloro-2-methylphenyl)-2-(methoxymethyl)-1H-benzimidazole-4-carboxamide hydrochloride], the IC50 was found to be 0.0596 µM in the assay on A549 cells and 0.0028 µM on human mPGES-1.

With `NC(=O)Cc1nc2c(C(=O)NCc3ccccc3C(F)(F)F)cc(NC(=O)c3ccccc3C(F)(F)F)cc2[nH]1` [Example 45, 2-(2-Amino-2-oxoethyl)-N-[2-(trifluoromethyl)benzyl]-6-({[2-(trifluoromethyl)phenyl]carbonyl}amino)-1H-benzimidazole-4-carboxamide hydrochloride], the figures for the IC50 in the assay with A549 cells and at human mPGES-1 were 2.08 µM and 0.0049 µM, respectively.

For `COCc1nc2c(C(=O)Nc3cccc(Cl)c3C)cc(NC(=O)c3ccccc3Br)cc2[nH]1` [Example 97, 6-{[(2-Bromophenyl)carbonyl]amino}-N-(3-chloro-2-methylphenyl)-2-(methoxymethyl)-1H-benzimidazole-4-carboxamide hydrochloride], the IC50 came to 0.0431 µM in the assay with A549 cells and 0.0061 µM on human mPGES-1.

Turning to `Cc1nc2c(C(=O)NC3CCCCC3)cc(NC(=O)c3ccccc3C(F)(F)F)cc2[nH]1` [Example 13, N-Cyclohexyl-2-methyl-6-({[2-(trifluoromethyl)phenyl]carbonyl}amino)-1H-benzimidazole-4-carboxamide hydrochloride], the IC50 in the assay with A549 cells stood at 0.0756 µM; on human mPGES-1 it was 0.0351 µM.

As to `Cn1cnc2c(C(=O)NCc3ccccc3C(F)(F)F)cc(NC(=O)c3ccccc3C(F)(F)F)cc21` [Example 48, 1-Methyl-N-[2-(trifluoromethyl)benzyl]-6-({[2-(trifluoromethyl)phenyl]carbonyl}amino)-1H-benzimidazole-4-carboxamide], the IC50 is 0.146 µM in the assay on A549 cells and 0.0499 µM at human mPGES-1.

Turning to `COCc1nc2c(C(=O)Nc3cccc(Cl)c3C)cc(NC(=O)c3c(F)ccc(F)c3Cl)cc2[nH]1` [Example 101, 6-{[(2-Chloro-3,6-difluorophenyl)carbonyl]amino}-N-(3-chloro-2-methylphenyl)-2-(methoxymethyl)-1H-benzimidazole-4-carboxamide hydrochloride], the IC50 in the assay with A549 cells came out at 0.118 µM; at human mPGES-1 it was 0.0778 µM.

Consider `COCc1nc2c(C(=O)NCc3ccccc3)cc(NC(=O)c3ccccc3C(F)(F)F)cc2[nH]1` [Example 217, N-Benzyl-2-(methoxymethyl)-6-({[2-(trifluoromethyl)phenyl]carbonyl}amino)-1H-benzimidazole-4-carboxamide hydrochloride], for which the IC50 in the assay on A549 cells was 0.317 µM; on human mPGES-1 it was 0.0269 µM.

As to `CCn1cnc2c(C(=O)NCc3ccccc3C(F)(F)F)cc(NC(=O)c3ccccc3C(F)(F)F)cc21` [Example 51, 1-Ethyl-N-[2-(trifluoromethyl)benzyl]-6-({[2-(trifluoromethyl)phenyl]carbonyl}amino)-1H-benzimidazole-4-carboxamide], the IC50 in the assay with A549 cells worked out at 0.33 µM; at human mPGES-1, 0.12 µM.
